What all share (type): functional, Cercopithecidae
The subject of assay [1] is Monkey. Put plainly: Effect of compound on rate of response maintained by cocaine (4.026 resp/s,+/-13.6%) in monkeys.
For assay [2], the system named is Monkey. Put plainly: Effect of compound on rate of response maintained by food (3.696 resp/s, +/-9.99%) in monkeys.
In assay [3] the test system is Monkey. Put plainly: Effect of compound on rate of response maintained by cocaine (4.026 resp/s,+/-13.6%) in monkeys at a dose of 3 mL.
The subject of assay [4] is Monkey. The assay can be described thus: Effect of compound on rate of response maintained by cocaine (4.026 resp/s,+/-13.6%) in monkeys at a dose of 6 mL.
In assay [5] the test system is Monkey. Put plainly: Effect of compound on rate of response maintained by food (3.696 resp/s, +/-9.99%) in monkeys at a dose of 3 mL.

Each structure is given as a SMILES string.

Drawing on ChEMBL document CHEMBL1129406, “Sustained decrease in cocaine-maintained responding in rhesus monkeys with 1-[2-[bis(4-fluorophenyl)methoxy]ethyl]-4-(3-hydroxy-3-phenylpropyl) piperazinyl decanoate, a long-acting ester derivative of GBR 12909” (1996), this text covers Control for one compound.

For the compound `CCCCCCCCCC(=O)OC(CCN1CCN(CCOC(c2ccc(F)cc2)c2ccc(F)cc2)CC1)c1ccccc1` (stereo not given), the Control in the assay with Monkey [1] came out at 76.2%; with Monkey [2], 97%; in the assay with Monkey [3], 74%; in the assay with Monkey [4], 25.3%; in the assay with Monkey [5], 82%.
